Experimental data from patent US12285012B2, “Compositions comprising pyridine carboxylate herbicides with acetolactate synthase (ALS) inhibitor herbicides” (Corteva Agriscience LLC, priority 2018, dated 2025).
Read-outs that look alike come from different tables or passages of the source.

What was measured:
[1] = system: Canadian thistle (CIRAR, Cirsium arvense); experiment: Greenhouse postemergence herbicidal effect; assay type: in vivo; conditions: for Obs % visual injury: CIRAR
Experimental: (§1) The plants were grown for 7-36 days (d) in a greenhouse with an approximate 14-hour (h) photo-period which was maintained at about 23° C. during the day and 22° C. during the night. Nutrients and water were added on a regular basis and supplemental lighting was provided with overhead metal halide 1000-Watt lamps as necessary. The plants were employed for testing when they reached the second or third true leaf stage.
(§2) The emulsifiable concentrates also included a safener, cloquintocet-mexyl, at 120 grams active ingredient per liter (g ai/L), unless otherwise noted below.
(§3) Control plants were sprayed in the same manner with the solvent blank. All pyridine carboxylate herbicide (component a) application rates are given as “g ae/ha” and all ALS inhibitor (component b) application rates are given as “g ai/ha.”
(§4) The treated plants and control plants were placed in a greenhouse as described above and watered by sub-irrigation to prevent wash-off of the test compounds. After 20-22 d, the condition of the test plants as compared with that of the control plants was determined visually and scored on a scale of 0 to 100 percent where 0 corresponds to no injury and 100 corresponds to complete kill.

[2] = system: chickweed (STEME, Stellaria media); experiment: Greenhouse postemergence herbicidal effect; assay type: in vivo; conditions: for Obs % visual injury: STEME; for % visual injury, Obs: 8.75 g/ha
Experimental: as §1, §2, §3, §4

[3] = system: pigweed (AMARE, Amaranthus retroflexus); experiment: Greenhouse postemergence herbicidal effect; assay type: in vivo; conditions: for Obs % visual injury: AMARE; for % visual injury, Obs: 8.75 g/ha
Experimental: as §1, §2, §3, §4

[4] = system: wild buckwheat (POLCO, Polygonum convolvulus); experiment: Greenhouse postemergence herbicidal effect; assay type: in vivo; conditions: for Obs % visual injury: POLCO; for % visual injury, Obs: 8.75 g/ha
Experimental: as §1, §2, §3, §4

[5] = system: wild pansy (VIOTR, Viola tricolor); experiment: Greenhouse postemergence herbicidal effect; assay type: in vivo; conditions: for Obs % visual injury: VIOTR; for % visual injury, Obs: 8.75 g/ha
Experimental: as §1, §2, §3, §4

[6] = system: common lambsquarters (CHEAL, Chenopodium album L.); experiment: Greenhouse postemergence herbicidal effect; assay type: in vivo; conditions: for Obs % visual injury: CHEAL
Experimental: (§5) Seeds of the desired test plant species were planted in a 90:10% v/v (volume/volume) mixture of PRO-MIX® BX (Premier Tech Horticulture, Quakertown, PA, USA) and PROFILE® GREENS GRADE™ (Profile Products LLC, Buffalo Grove, IL, USA) planting mixture, which typically has a pH of 5.2 to 6.2 and an organic matter content of at least 50 percent, in plastic pots with a surface area of 103.2 square centimeters (cm^2). […] The plants were grown for 7-36 days (d) in a greenhouse with an approximate 14-hour (h) photo-period which was maintained at about 23° C. during the day and 22° C. during the night. Nutrients and water were added on a regular basis and supplemental lighting was provided with overhead metal halide 1000-Watt lamps as necessary. The plants were employed for testing when they reached the second or third true leaf stage.
(§6) Emulsifiable concentrates of each of each pyridine carboxylate herbicide (Compound A or Compound B) were prepared at 100 grams acid equivalent per liter (g ae/L). The emulsifiable concentrates also included a safener, cloquintocet-mexyl, at 120 grams active ingredient per liter (g ai/L), unless otherwise noted below. An aliquot of each emulsifiable concentrate was placed in a 25 mL glass vial and diluted with an aqueous mixture of 1.25% (v/v) ACTIROB® B esterified rapeseed oil (Bayer Crop Science, Research Triangle Park, NC, USA) or MSO® Concentrate with LECI-TECH® methylated soybean oil (Loveland Products, Loveland, CO, USA) to obtain concentrated stock solutions at the highest application rate for each herbicide, based upon a 12 milliliter (mL) application volume at a rate of 187 liters per hectare (L/ha). The concentrated stock solutions were further diluted with an aqueous mixture of 1.25% v/v ACTIROB® B or MSO® Concentrate with LECI-TECH® to obtain stock solutions at reduced application rates for each herbicide. Spray solutions of the herbicide combinations (Compound A or Compound B plus ALS herbicide) were prepared by adding weighed amounts or aliquots of the ALS herbicides to the stock solutions of Compound A or Compound B to form 12-mL spray solutions in two- or three-way combinations.
(§7) The spray solutions were applied to the plant material with an overhead Mandel track sprayer equipped with 8002E nozzles calibrated to deliver 187 L/ha over an application area of 0.503 square meters (m^2) at a spray height of 18 inches (43 centimeters (cm)) above the average plant canopy. Control plants were sprayed in the same manner with the solvent blank. All pyridine carboxylate herbicide (component a) application rates are given as “g ae/ha” and all ALS inhibitor (component b) application rates are given as “g ai/ha.”
as §4

[7] = system: kochia (KCHSC, Kochia scoparia); experiment: Greenhouse postemergence herbicidal effect; assay type: in vivo; conditions: for Obs % visual injury: KCHSC
Experimental: as §5, §6, §7, §4

spring wheat (TRZAS) = assay type: in vivo, Triticum aestivum; conditions: for Obs % visual injury: TRZAS
Experimental: as §1, §2, §3, §4

[8] = system: broad-leaf dock (RUMOB, Rumex obtusifolius); experiment: Greenhouse postemergence herbicidal effect; assay type: in vivo; conditions: for Obs % visual injury: RUMOB; for % visual injury, Obs: 8.75 g/ha
Text: (§8) Seeds of the desired test plant species were planted in a 90:10% v/v (volume/volume) mixture of PRO-MIX® BX (Premier Tech Horticulture, Quakertown, PA, USA) and PROFILE® GREENS GRADE™ (Profile Products LLC, Buffalo Grove, IL, USA) planting mixture, which typically has a pH of 5.2 to 6.2 and an organic matter content of at least 50 percent, in plastic pots with a surface area of 103.2 square centimeters (cm^2). In some aspects, to ensure good germination and healthy plants, a fungicide treatment and/or other chemical or physical treatment was applied. The plants were grown for 7-36 days (d) in a greenhouse with an approximate 14-hour (h) photo-period which was maintained at about 23° C. during the day and 22° C. during the night. Nutrients and water were added on a regular basis and supplemental lighting was provided with overhead metal halide 1000-Watt lamps as necessary. The plants were employed for testing when they reached the second or third true leaf stage.
as §6, §7, §4

[9] = system: large crabgrass (DIGSA, Digitaria sanguinalis); experiment: Greenhouse postemergence herbicidal effect; assay type: in vivo; conditions: DIGSA
Text: as §8, §6, §7, §4

[10] = system: Russian thistle (SASKR, Salsola kali); experiment: Greenhouse postemergence herbicidal effect; assay type: in vivo
Experimental: as §1, §2, §3, §4

[11] = system: wild chamomile (MATCH, Matricaria chamomilla); experiment: Greenhouse postemergence herbicidal effect; assay type: in vivo
Experimental: as §1, §2, §3, §4

spring barley (HORVS) = assay type: in vivo, Hordeum vulgare; conditions: 10 g/ha
Experimental: as §1, §2, §3, §4

[12] = system: wild mustard (SINAR, Sinapis arvensis); experiment: Greenhouse postemergence herbicidal effect; assay type: in vivo
Experimental: as §1, §2, §3, §4

[13] = system: winter rape (BRSNW, Brassica napus); experiment: Greenhouse postemergence herbicidal effect; assay type: in vivo
Experimental: as §1, §2, §3, §4

[14] = system: common sunflower (HELAN, Helianthus annuus); experiment: Greenhouse postemergence herbicidal effect; assay type: in vivo; conditions: 8.75 g/ha
Text: as §8, §6, §7, §4

[15] = system: ivyleaf morningglory (IPOHE, Ipomoea hederacea); experiment: Greenhouse postemergence herbicidal effect; assay type: in vivo; conditions: 8.75 g/ha
Text: as §8, §6, §7, §4

[16] = system: soybean (GLXMA, Glycine max); experiment: Greenhouse postemergence herbicidal effect; assay type: in vivo; conditions: 8.75 g/ha
Text: as §8, §6, §7, §4

[17] = system: velvetleaf (ABUTH, Abutilon theophrasti); experiment: Greenhouse postemergence herbicidal effect; assay type: in vivo; conditions: 8.75 g/ha
Text: as §8, §6, §7, §4

pyriminobac
Obs % visual injury ([1]; Pyriminobac methyl 30 g/ha): 8% | Obs % visual injury ([2]; Pyriminobac methyl 30 g/ha): 15% | Obs % visual injury ([3]; Pyriminobac methyl 30 g/ha): 93% | Obs % visual injury ([4]; Pyriminobac methyl 30 g/ha): 80% | Obs % visual injury ([5]; Pyriminobac methyl 30 g/ha): 5% | Obs % visual injury ([6]; Pyriminobac methyl 30 g/ha): 20% | Obs % visual injury ([7]; Pyriminobac methyl 30 g/ha): 33% | Obs % visual injury (spring wheat (TRZAS); Pyriminobac methyl 30 g/ha): 0% | Obs % visual injury ([8]; Pyriminobac methyl 30 g/ha): 65% | Obs % visual injury ([9]; Pyriminobac methyl 30 g/ha): 0%

COc1cc(OC)nc(NC(=O)NS(=O)(=O)Cc2ccccc2C(=O)O)n1 [Bensulfuron, bensulfuron]
Obs % visual injury ([1]; Bensulfuron 16 g/ha): 20% | % visual injury, Obs ([10]; 16 g/ha): 0% | Obs % visual injury ([2]; Bensulfuron 16 g/ha): 8% | Obs % visual injury ([3]; Bensulfuron 16 g/ha): 20% | Obs % visual injury ([4]; Bensulfuron 16 g/ha): 80% | % visual injury, Obs ([11]; 16 g/ha): 38% | Obs % visual injury ([5]; Bensulfuron 16 g/ha): 8% | % visual injury, Obs ([6]; 16 g/ha): 10% | Obs % visual injury ([6]; Bensulfuron 16 g/ha): 10% | % visual injury, Obs ([7]; 16 g/ha): 5% | Obs % visual injury ([7]; Bensulfuron 16 g/ha): 20% | Obs % visual injury ([8]; Bensulfuron 16 g/ha): 60% | Obs % visual injury ([9]; Bensulfuron 16 g/ha): 0%

flupyrsulfuron
Obs % visual injury ([1]; Flupyrsulfuron 10 g/ha): 84% | % visual injury, Obs ([10]; 10 g/ha): 45% | Obs % visual injury ([2]; Flupyrsulfuron 10 g/ha): 80% | Obs % visual injury ([3]; Flupyrsulfuron 10 g/ha): 97% | Obs % visual injury ([4]; Flupyrsulfuron 10 g/ha): 91% | % visual injury, Obs ([11]; 10 g/ha): 83% | Obs % visual injury ([5]; Flupyrsulfuron 10 g/ha): 8% | % visual injury, Obs ([6]; 10 g/ha): 75% | Obs % visual injury ([6]; Flupyrsulfuron 10 g/ha): 63% | % visual injury, Obs ([7]; 10 g/ha): 15% | Obs % visual injury ([7]; Flupyrsulfuron 10 g/ha): 30% | % visual injury, Obs (spring wheat (TRZAS); 10 g/ha): 0% | Obs % visual injury (spring wheat (TRZAS); Flupyrsulfuron 10 g/ha): 15% | % visual injury, Obs (spring barley (HORVS)): 8% | Obs % visual injury ([8]; Flupyrsulfuron 10 g/ha): 70% | Obs % visual injury ([9]; Flupyrsulfuron 10 g/ha): 0%

CCS(=O)(=O)c1nc2ccccn2c1S(=O)(=O)NC(=O)Nc1nc(OC)cc(OC)n1 [Sulfosulfuron, sulfosulfuron]
pest or weed control at 8.75 g/ha ([1]; Cirsium arvense, post-emergence, 8.75 g/ha, read-out: % visual injury, Obs): 5% | % visual injury ([1]; Sulfosulfuron 140 g/ha): 45% | % visual injury, Obs [2]: 53% | % visual injury, Obs [3]: 40% | % visual injury ([3]; Sulfosulfuron 140 g/ha): 88% | % visual injury, Obs [4]: 5% | % visual injury ([4]; Sulfosulfuron 140 g/ha): 83% | % visual injury ([11]; Sulfosulfuron 140 g/ha): 73% | % visual injury ([12]; Sulfosulfuron 140 g/ha): 99% | % visual injury, Obs [5]: 55% | % visual injury ([13]; Sulfosulfuron 140 g/ha): 98% | % visual injury, Obs ([6]; 8.75 g/ha): 0% | % visual injury ([6]; Sulfosulfuron 140 g/ha): 43% | pest or weed control at 8.75 g/ha ([7]; Bassia scoparia, post-emergence, 8.75 g/ha, read-out: % visual injury, Obs): 0% | % visual injury ([7]; Sulfosulfuron 140 g/ha): 8% | % visual injury, Obs [8]: 0% | % visual injury, Obs [14]: 100% | % visual injury, Obs [15]: 78% | % visual injury, Obs [16]: 85% | % visual injury, Obs [17]: 30%

halosulfuron
% visual injury, Obs ([1]; 8.75 g/ha): 10% | % visual injury ([1]; Halosulfuron 8.75 g/ha): 40% | % visual injury, Obs [2]: 0% | % visual injury, Obs [3]: 40% | % visual injury ([3]; Halosulfuron 8.75 g/ha): 95% | % visual injury, Obs [4]: 5% | % visual injury ([4]; Halosulfuron 8.75 g/ha): 63% | % visual injury ([11]; Halosulfuron 8.75 g/ha): 78% | % visual injury ([12]; Halosulfuron 8.75 g/ha): 95% | % visual injury, Obs [5]: 15% | % visual injury ([13]; Halosulfuron 8.75 g/ha): 88% | % visual injury, Obs ([6]; 8.75 g/ha): 0% | % visual injury ([6]; Halosulfuron 8.75 g/ha): 10% | % visual injury, Obs ([7]; 8.75 g/ha): 0% | % visual injury ([7]; Halosulfuron 8.75 g/ha): 15% | % visual injury, Obs [8]: 0% | % visual injury, Obs [14]: 100% | % visual injury, Obs [15]: 0% | % visual injury, Obs [16]: 78% | % visual injury, Obs [17]: 95%
